Source: article PMC5509055 (Prostaglandins & other lipid mediators, 2017)
Where a name gives a salt, the structure may show the parent alone.

Assays:
[1] = molecular target: sphingosine kinase 1 (SK1) (Homo sapiens, UniProt Q9NYA1); assay: fluorescent NBD-sphingosine kinase assay with recombinant human SK1; format: biochemical
[2] = molecular target: T1, sphingosine kinase 2 (SK2) (Homo sapiens, UniProt Q9NRA0); assay: fluorescent NBD-sphingosine kinase assay with recombinant human SK2; format: biochemical
T1 sequence (Q9NRA0 1-654): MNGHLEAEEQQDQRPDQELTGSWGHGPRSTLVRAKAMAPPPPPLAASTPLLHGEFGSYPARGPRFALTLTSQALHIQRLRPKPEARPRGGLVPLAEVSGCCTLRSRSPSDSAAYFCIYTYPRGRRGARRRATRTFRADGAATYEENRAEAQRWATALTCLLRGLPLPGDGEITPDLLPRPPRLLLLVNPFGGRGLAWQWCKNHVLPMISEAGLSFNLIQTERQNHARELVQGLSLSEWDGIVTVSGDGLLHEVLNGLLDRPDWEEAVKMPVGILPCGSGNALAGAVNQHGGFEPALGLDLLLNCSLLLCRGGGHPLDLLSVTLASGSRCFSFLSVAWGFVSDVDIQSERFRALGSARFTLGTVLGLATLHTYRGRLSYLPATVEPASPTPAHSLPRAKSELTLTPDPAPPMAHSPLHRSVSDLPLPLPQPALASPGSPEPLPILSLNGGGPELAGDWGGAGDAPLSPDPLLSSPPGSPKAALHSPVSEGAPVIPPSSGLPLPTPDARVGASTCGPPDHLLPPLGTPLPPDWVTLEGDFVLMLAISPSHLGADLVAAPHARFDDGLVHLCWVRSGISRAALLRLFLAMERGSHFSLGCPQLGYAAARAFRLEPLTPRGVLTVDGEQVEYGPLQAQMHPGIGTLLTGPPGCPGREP

Chain of sphingosine kinase 1 (SK1) (Q9NYA1 whole entry): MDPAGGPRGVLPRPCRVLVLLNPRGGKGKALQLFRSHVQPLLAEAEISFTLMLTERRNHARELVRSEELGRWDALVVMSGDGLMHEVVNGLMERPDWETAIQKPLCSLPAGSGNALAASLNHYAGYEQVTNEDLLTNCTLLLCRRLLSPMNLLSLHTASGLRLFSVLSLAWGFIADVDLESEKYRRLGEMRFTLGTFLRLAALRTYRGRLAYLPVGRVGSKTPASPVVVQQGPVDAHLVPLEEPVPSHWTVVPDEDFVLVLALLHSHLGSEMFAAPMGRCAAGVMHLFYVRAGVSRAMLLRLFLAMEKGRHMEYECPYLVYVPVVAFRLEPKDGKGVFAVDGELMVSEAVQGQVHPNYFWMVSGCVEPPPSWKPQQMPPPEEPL

- IC50 [1]: ~5.5 µM
- IC50 [2]: ~57 µM
Structure (SMILES): CCCCCCCCCCCCC/C=C/[C@H](O)[C@@H](CO)NC(=N)N [LCL351, L-erythro-2-N-(1′-carboxamidino)-sphingosine hydrochloride]
